The values below are quoted from earlier work in patent US8030432B2, “Copolymerization of hydroxytyrosol with flavonoids mediated by horseradish peroxidases” (The United States of America as represented by the …, priority 2009, dated 2011).

The conditions of series [1]: addition of 300 mg/Kg; red meat and poultry.

As for epigallocatechin-3-gallate [EGCG], the “decomposition at room temperature” value is listed as “decompose at room temperature after a few minutes”.

Consider catechin, for which the inhibition of oxidation entry in series [1] is listed as “showed inhibition of oxidation”.
